Experimental data: the Deep4Chem optical property database
Where “and” joins values, the source holds several entries; their conditions need not be identical. Identical values can stand only once.

Assay: photoluminescence quantum yield (fraction); solvent given as SMILES

Q: With `CC1=CC(C)=[N+]2C1=C(c1ccc(N3CCOCC3)cc1)c1c(C)cc(C)n1[B-]2(F)F` as the molecule, how does the photoluminescence quantum yield (in C1CCOC1) read?
A: 0.011

Q: And the photoluminescence quantum yield (in CC#N)?
A: 0.001

Q: What about the photoluminescence quantum yield (in CC(=O)C(C)(C)C) of the same molecule?
A: 0.063

Q: What about the photoluminescence quantum yield (in CC(C)=O) of the same molecule?
A: 0.001

Q: What about the photoluminescence quantum yield (in CCCCCC) of the same molecule?
A: 0.45

Q: And the photoluminescence quantum yield (in CCOC(C)=O)?
A: 0.029

Q: What about the photoluminescence quantum yield (in CO) of the same molecule?
A: 0.002

Q: Which photoluminescence quantum yield (in CC#N) does the source give for `Cc1ccc2c(c1)nc1c(=O)n(C)c(=O)nc-1n2C` here?
A: 0.43

Q: With `COC(=O)c1c(NC(C)(C)C)oc(-c2ccc(-c3ccccc3)cc2)c1C(=O)OC` as the molecule, how does the photoluminescence quantum yield (in CC#N) read?
A: 0.14

Q: For `CC1(C)C(/C=C/C2=C(Cl)C(=C/C=C3/N(Cc4ccc(F)cc4)c4ccccc4C3(C)C)/CCC2)=[N+](Cc2ccc(F)cc2)c2ccccc21`, which photoluminescence quantum yield (in CCO) is on record?
A: 0.148

Q: For `CN(C)c1ccc(-c2cc(-c3ccc(N(C)C)cc3)ncn2)cc1`, which photoluminescence quantum yield (in ClCCl) is on record?
A: 0.72

Q: For `CC(=O)Nc1ccc(/C=C2\OC(=O)c3cc(N)ccc32)cc1`, which photoluminescence quantum yield (in CC#N) is on record?
A: 0.015

Q: And the photoluminescence quantum yield (in CC(C)=O)?
A: 0.02

Q: What about the photoluminescence quantum yield (in CC(C)CO) of the same molecule?
A: 0.032

Q: And the photoluminescence quantum yield (in CC(C)O)?
A: 0.032

Q: What about the photoluminescence quantum yield (in CCCO) of the same molecule?
A: 0.03

Q: What about the photoluminescence quantum yield (in CCO) of the same molecule?
A: 0.028

Q: What about the photoluminescence quantum yield (in CCOC(C)=O) of the same molecule?
A: 0.023

Q: And the photoluminescence quantum yield (in CCOCC)?
A: 0.04

Q: What about the photoluminescence quantum yield (in CO) of the same molecule?
A: 0.02

Q: For `CC(C)(C)c1ccc2oc3nc4oc5ccc(N6c7ccccc7Oc7ccccc76)cc5c4cc3c2c1`, which photoluminescence quantum yield (in ClC(Cl)Cl) is on record?
A: 0.057

Q: With `CC(C)(C)c1ccc2c(c1)c1cc(C(C)(C)C)ccc1n2-c1ccc(C#Cc2ccc3c4ccc(C#Cc5ccc(C=C(C#N)C#N)cc5)cc4n(-c4ccc(C(F)(F)F)cc4)c3c2)cc1` as the molecule, how does the photoluminescence quantum yield (in ClCCl) read?
A: 0.12

Q: With `Cc1cc2nc3c(=O)n(C)c(=O)nc-3n(C)c2cc1C` as the molecule, how does the photoluminescence quantum yield (in CC#N) read?
A: 0.17 and 0.47

Q: For `CC(C)(C)c1ccc2c(c1)oc1nc3oc4ccc(-n5c6ccccc6c6ccccc65)cc4c3cc12`, which photoluminescence quantum yield (in ClC(Cl)Cl) is on record?
A: 0.075

Q: For `Clc1cnc2nn3ccccc3c2n1`, which photoluminescence quantum yield (in C1CCOC1) is on record?
A: 0.38

Q: For `O=C(O)C1=C/C(=C/C=[N+]2/c3cc(O)c(C[C@@H]4O[C@H](CO)[C@@H](O)C(O)[C@H]4O)cc3C[C@H]2C(=O)O)C[C@@H](C(=O)O)N1` (some centres undefined), which photoluminescence quantum yield (in CO) is on record?
A: 0.0013

Q: And the photoluminescence quantum yield (in O)?
A: 0.0007

Q: What about the photoluminescence quantum yield (in OCCO) of the same molecule?
A: 0.0046

Q: What about the photoluminescence quantum yield (in [2H]O[2H]) of the same molecule?
A: 0.0011

Q: Which photoluminescence quantum yield (in ClCCl) does the source give for `N#CC1N=c2cc3c4c(cccc4c2=NC1C#N)C(c1ccccc1)=C(c1ccccc1)O3` (centres undefined) here?
A: 0.17

Q: With `CCCCCCOc1ccc(N(c2ccc(OCCCCCC)cc2)c2ccc(-c3sc(-c4ccc(N(c5ccc(OCCCCCC)cc5)c5ccc(OCCCCCC)cc5)cc4)c4nc(-c5ccc(C(=O)OC)cc5)c(-c5ccc(C(=O)OC)cc5)nc34)cc2)cc1` as the molecule, how does the photoluminescence quantum yield (in CN(C)C=O) read?
A: 0.021

Q: What about the photoluminescence quantum yield (in ClC(Cl)Cl) of the same molecule?
A: 0.026

Q: What does the source list for `CNc1ccc2c(c1)-c1ccccc1C2=O`?
A: photoluminescence quantum yield (in C1CCCCC1): 0.045; photoluminescence quantum yield (in CC#N): 0.064; photoluminescence quantum yield (in CCO): 0.0065; photoluminescence quantum yield (in c1ccccc1): 0.19

Q: For `O=C(c1sc(-c2ccc(-c3cc(-c4cccs4)c(C(=O)N4CCOCC4)s3)s2)cc1-c1cccs1)N1CCOCC1`, which photoluminescence quantum yield (in ClCCl) is on record?
A: 0.14

Q: For `CN(C)c1ccc2nc(-c3ccc(C=C4C(=O)c5ccccc5C4=O)cc3)sc2c1`, which photoluminescence quantum yield (in C1CCCCC1) is on record?
A: 0.13

Q: And the photoluminescence quantum yield (in CC#N)?
A: 0

Q: What about the photoluminescence quantum yield (in CO) of the same molecule?
A: 0

Q: What about the photoluminescence quantum yield (in ClC(Cl)Cl) of the same molecule?
A: 0.35

Q: With `CC(C)CN1C(=O)/C(=C/c2ccc([N+](=O)[O-])cc2)C=C1c1ccccc1` as the molecule, how does the photoluminescence quantum yield (in C1COCCO1) read?
A: 0.033

Q: Which photoluminescence quantum yield (in C1CCOC1) does the source give for `O=C(c1ccc(N(c2ccccc2)c2ccccc2)cc1)[C@H]1[C@H](c2ccc(F)cc2)C[C@](O)(c2ccccn2)C[C@]1(O)c1ccccn1` here?
A: 0.4

Q: And the photoluminescence quantum yield (in CC#N)?
A: 0.02

Q: And the photoluminescence quantum yield (in CCO)?
A: 0.01

Q: And the photoluminescence quantum yield (in CCOC(C)=O)?
A: 0.34

Q: And the photoluminescence quantum yield (in CN(C)C=O)?
A: 0.02

Q: What about the photoluminescence quantum yield (in ClCCl) of the same molecule?
A: 0.21

Q: What about the photoluminescence quantum yield (in c1ccccc1) of the same molecule?
A: 0.74
